Experimental data: PubChem BioAssay (NCI)
Several values for one entry are separate records, joined by “and”; a condition that tells them apart may be missing. Equal values may be shown once.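 Step 1: Grow cells in 96-well plates. Step 2: Expose to compound for 48 hours at 5 concentrations. Step 3: Interpolate endpoints linearly; if unreached, use highest concentration. GI50 = concentration required for 50% inhibition of growth. The concentration for full growth arrest is given as TGI.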

Experiments:
Assay in all cases: NCI tumour cell line growth inhibition, 48 h; in the data active means GI50 below about 0.43 µM; inactive means the rest
[1] = system: OVCAR-4 ovarian
[2] = system: HS 578T breast
[3] = system: SF-295 CNS
[4] = system: OVCAR-8 ovarian
[5] = system: NCI-H460 lung
[6] = system: SN12C renal
[7] = system: U251 CNS
[8] = system: HCC-2998 colon
[9] = system: NCI-H226 lung
[10] = system: IGROV1 ovarian
[11] = system: PC-3 prostate
[12] = system: SF-539 CNS
[13] = system: HCT-116 colon
[14] = system: A498 renal
[15] = system: COLO 205 colon
[16] = system: RPMI-8226 leukemia
[17] = system: DU-145 prostate
[18] = system: SW-620 colon
[19] = system: SR leukemia
[20] = system: SNB-75 CNS
[21] = system: SF-268 CNS
[22] = system: HT29 colon
[23] = system: OVCAR-3 ovarian
[24] = system: NCI-H23 lung
[25] = system: LOX IMVI melanoma
[26] = system: RXF 393 renal
[27] = system: 786-0 renal
[28] = system: HCT-15 colon
[29] = system: SK-MEL-28 melanoma
[30] = system: MDA-MB-435
[31] = system: SK-MEL-2 melanoma
[32] = system: NCI-H522 lung
[33] = system: EKVX NSCLC
[34] = system: HL-60(TB) leukemia
[35] = system: UO-31 renal
[36] = system: SNB-19 CNS
[37] = system: SK-MEL-5 melanoma
[38] = system: MOLT-4 leukemia
[39] = system: ACHN renal
[40] = system: TK-10 renal
[41] = system: CCRF-CEM leukemia
[42] = system: MCF7 breast
[43] = system: A549 NSCLC
[44] = system: HOP-92 NSCLC
[45] = system: BT-549 breast
[46] = system: OVCAR-5 ovarian
[47] = system: M14 melanoma
[48] = system: HOP-62 NSCLC
[49] = system: KM12 colon
[50] = system: MDA-MB-231 breast
[51] = system: UACC-62 melanoma
[52] = system: SK-OV-3 ovarian
[53] = system: UACC-257 melanoma
[54] = system: NCI/ADR-RES ovarian
[55] = system: K-562 leukemia
[56] = system: MALME-3M melanoma
[57] = system: CAKI-1 renal

COC(=O)C1CCC(NC(=O)c2csc([C@@H](C[C@H](C(C)C)N(C)C(=O)[C@@H](NC(=O)[C@H]3CCCCN3C)C(C)C)OC(C)=O)n2)CC1 (stereo partly drawn)
6730 nM: TGI [44]
29.4 nM: TGI [23]
63.7 nM and 151 nM: TGI [12]
active: GI50 [2] 4.29 nM and 11.1 nM | GI50 [3] 4.23 nM and 14.6 nM | GI50 [4] 11.4 nM and 26.6 nM | GI50 [5] 3.72 nM and 12 nM | GI50 [6] 6.74 nM and 22.5 nM | GI50 [7] 4.99 nM and 15.4 nM | GI50 [8] 32.5 nM and 99.4 nM | GI50 [9] 12.6 nM and 31.7 nM | GI50 [10] 11.5 nM and 30.5 nM | GI50 [11] 8.4 nM and 16.8 nM | GI50 [12] 3.94 nM and 12.7 nM | GI50 [13] 4.01 nM | GI50 [14] 6.8 nM and 12.6 nM | GI50 [15] 3.59 nM and 12.1 nM | GI50 [16] 4.98 nM and 14.9 nM | GI50 [17] 4.06 nM and 9.67 nM | GI50 [18] 4.53 nM and 14.9 nM | GI50 [19] 2.12 nM and 3.33 nM | GI50 [20] 3.07 nM and 11.9 nM | GI50 [21] 9.2 nM and 19.7 nM | GI50 [22] 3.43 nM and 10.4 nM | GI50 [23] 3.59 nM and 9.35 nM | GI50 [24] 34.3 nM and 21.7 nM | GI50 [25] 6.44 nM and 16.4 nM | GI50 [26] 9.23 nM | GI50 [27] 7.42 nM and 14 nM | GI50 [28] 18.5 nM and 53.6 nM | GI50 [30] 0.404 nM and 3.33 nM | GI50 [31] 7.62 nM and 10.9 nM | GI50 [32] 1.38 nM and 3.33 nM | GI50 [33] 15.2 nM and 38.5 nM | GI50 [34] 3 nM and 7.35 nM | GI50 [35] 68.4 nM and 303 nM | GI50 [36] 4.7 nM and 15.2 nM | GI50 [37] 3.26 nM and 10.8 nM | GI50 [38] 5.74 nM and 14.9 nM | GI50 [39] 279 nM | GI50 [41] 4.07 nM and 10.7 nM | GI50 [42] 3.09 nM and 12.1 nM | GI50 [43] 8.59 nM and 21 nM | GI50 [44] 15.3 nM | GI50 [45] 9.9 nM and 20 nM | GI50 [46] 11.2 nM and 21.2 nM | GI50 [47] 5.7 nM and 5.52 nM | GI50 [48] 5.19 nM and 16 nM | GI50 [49] 4.98 nM and 14 nM | GI50 [50] 8.63 nM and 24 nM | GI50 [51] 3.82 nM and 15.7 nM | GI50 [52] 4.5 nM and 14.8 nM | GI50 [54] 106 nM and 258 nM | GI50 [55] 2.56 nM and 7.66 nM
14.1 nM and 78.4 nM: TGI [15]
5.9 nM and 10.7 nM: TGI [32]
791 nM and 225 nM: TGI [45]
2.65 nM and 8.57 nM: TGI [30]
inactive: GI50 [29] > 33300 nM | GI50 [40] 1050 nM | GI50 [53] > 33300 nM
28.9 nM: TGI [17]
16.3 nM: TGI [47]
127 nM: TGI [14]
13.6 nM and 18.1 nM: TGI [34]
> 33300 nM: TGI [1] | TGI [2] | TGI [3] | TGI [4] | TGI [5] | TGI [6] | TGI [7] | TGI [8] | TGI [9] | TGI [10] | TGI [11] | TGI [16] | TGI [18] | TGI [19] | TGI [20] | TGI [21] | TGI [24] | TGI [25] | TGI [26] | TGI [27] | TGI [28] | TGI [29] | TGI [31] | TGI [33] | TGI [35] | TGI [36] | TGI [38] | TGI [39] | TGI [40] | TGI [41] | TGI [42] | TGI [43] | TGI [46] | TGI [48] | TGI [49] | TGI [51] | TGI [52] | TGI [53] | TGI [54] | TGI [55]
118 nM and 348 nM: TGI [37]
4200 nM: TGI [22]

CC(=O)c1cnc2ccc(-c3cc(Cl)c(O)c(Cl)c3)nc2c1NC1CCC(CN(C)C)CC1 (stereo not drawn)
85.5 nM and 689 nM: TGI [31]
240 nM and 1540 nM: TGI [41]
264 nM and 1120 nM: TGI [25]
273 nM and 760 nM: TGI [47]
36.8 nM and 360 nM: TGI [20]
888 nM and 4410 nM: TGI [22]
558 nM and 2000 nM: TGI [49]
224 nM and 695 nM: TGI [42]
2500 nM and > 10000 nM: TGI [13] | TGI [18] | TGI [46] | TGI [55]
78.1 nM and 562 nM: TGI [23]
2500 nM and 1190 nM: TGI [11]
93.9 nM and 419 nM: TGI [26]
1340 nM and 2270 nM: TGI [6]
106 nM and 664 nM: TGI [40]
2500 nM and 3820 nM: TGI [36]
99 nM and 458 nM: TGI [44]
570 nM and 1450 nM: TGI [43]
87.7 nM and 508 nM: TGI [35]
161 nM and 959 nM: TGI [48]
105 nM and 1050 nM: TGI [5]
active: GI50 [1] 40.4 nM and 245 nM | GI50 [3] 32.9 nM and 267 nM | GI50 [4] 28.9 nM and 255 nM | GI50 [8] 44.9 nM and 191 nM | GI50 [56] 48.4 nM and 49.9 nM | GI50 [9] 39.5 nM and 81.9 nM | GI50 [13] 9.06 nM and 61.3 nM | GI50 [14] 13.7 nM and 111 nM | GI50 [15] 42.5 nM and 318 nM | GI50 [16] 45.1 nM and 367 nM | GI50 [19] 5.49 nM | GI50 [20] 5.15 nM and 33.3 nM | GI50 [26] 35.8 nM and 185 nM | GI50 [27] 52.1 nM and 346 nM | GI50 [29] 19.4 nM and 186 nM | GI50 [30] 12.8 nM and 116 nM | GI50 [31] 28.8 nM and 237 nM | GI50 [32] 4.88 nM and 48 nM | GI50 [57] 12.6 nM and 109 nM | GI50 [33] 48.6 nM and 337 nM | GI50 [36] 31.1 nM and 230 nM | GI50 [40] 30.7 nM and 160 nM | GI50 [42] 17.9 nM and 169 nM | GI50 [44] 11.4 nM and 52.6 nM | GI50 [46] 61.2 nM and 207 nM | GI50 [48] 27.5 nM and 195 nM | GI50 [50] 31.6 nM and 185 nM | GI50 [53] 54.4 nM and 192 nM | GI50 [54] 53.1 nM and 310 nM
55.9 nM and 403 nM: TGI [14]
189 nM and 1220 nM: TGI [21]
359 nM and 608 nM: TGI [9]
324 nM and 2580 nM: TGI [1]
289 nM and 1420 nM: TGI [27]
495 nM and 772 nM: TGI [50]
220 nM and 416 nM: TGI [56]
39.8 nM: TGI [19]
55.4 nM and 306 nM: TGI [37]
53.1 nM and 505 nM: TGI [12]
107 nM and 739 nM: TGI [2]
1080 nM and 1760 nM: TGI [17]
171 nM and 758 nM: TGI [29]
384 nM and 1160 nM: TGI [30]
120 nM and 588 nM: TGI [45]
111 nM and 987 nM: TGI [52]
84.4 nM and 436 nM: GI50 [22]
234 nM and 783 nM: TGI [53]
672 nM and 535 nM: TGI [57]
